Measurements published in patent US20200046617A1, “Composition For Combating The Signs Of Ageing Of The Skin And Hair And Nails” (TOMCAT INTERNATIONAL LIMITED, priority 2017, published 2020).

Assays:
Type in all cases: cell-based
human fibroblasts [1] = assay: Intracellular ATP production by cultivated human fibroblasts (chemiluminescence-based assay); settings: resveratrol 1 μM, betaine 1 mM or mixture; for ATP (μM per cell) Mean value: 120 min incubation, mean of 4 measurements; for ATP Increase (%): with respect to ATP level in untreated cells, 120 min
Experimental: Human fibroblasts were cultured at 37° C. in wet atmosphere with 5% CO2, on MEM supplemented with glucose, serum and glutamine. A solution containing trans-resveratrol and/or betaine is added to the culture medium:
The primary fibroblast cultures are incubated for 120 min with resveratrol at a final concentration of 1 μM, betaine at a concentration of 1 mM or a mixture of the two.
The cell viability is measured after incubation by fluorescence. The intracellular ATP concentration is measured by a chemiluminescence-based assay; the mean of 4 measurements is taken.
The intracellular ATP concentrations are expressed in μM of ATP per viable cell and percent of ATP increase is calculated with respect to the ATP level in untreated cells.

human fibroblasts [2] = assay: Mitochondrial mass of FK866-treated human fibroblasts (Nonyl Acridine Orange probe, flow cytometry); settings: for Effect of treatment against FK866 on mitochondrial mass (in words): fibroblasts treated with FK866; for Mitochondrial mass Increase (%): vs FK866 2.5 nM non treated
Experimental: Human fibroblasts were cultured at 37° C. in wet atmosphere with 5% CO2, on MEM supplemented with glucose, serum and glutamine. The cells are treated with a chemical agent (FK866) in the presence or absence of the following compounds: Trans-resveratrol and Betaine. Agent FK866 reduces the cell mitochondrial mass, thereby mimicking one of the signs of ageing.
Under these conditions, the ability of the active ingredient to increase the mitochondrial mass is assessed.
After 24 h treatment, the mitochondrial mass is therefore measured using the Nonyl Acridine Orange (NAO, Invitrogen) probe which fluoresces at 533 nm. The cell viability can be measured by DAPI staining. A flow cytometry analysis is conducted with a FACS LSRII and the results analysed by FlowJo software.

Col1A1 = Col1A1 gene expression in cutaneous fibroblasts (quantitative real-time PCR); settings: 24 h, resveratrol 4 μM, betaine 5 mM or both; for Relative expression of Col1A1 Mean value: relative to untreated (ΔΔCt); for Relative expression of Col1A1 Increase (%): vs untreated
Experimental: Cutaneous fibroblasts were cultured for 24 h with resveratrol, betaine or mixtures of the two compounds.
For the gene expression analysis, the total RNAs were extracted from the fibroblast cultures and the expression measured by quantitative real-time PCR. RNA extraction was carried out using an RNeasy Mini Kit (Qiagen). The total RNAs were used for the cDNA synthesis using the iScript cDNA synthesis Kit (Biorad). The PCR reactions were conducted using the mix LightCycler® 480 SYBR Green I Master (Roche). To compare the relative expressions, the Δ ΔCt method was used. The relative expression of the gene of interest is represented by the expression variation compared with the untreated samples.

[3] = in presence of FK866 2.5 nM, 24 h, betaine 5 mM, resveratrol 25 μM or both
[4] = 24 h, betaine 5 mM, resveratrol 25 μM or both

SMILES	ATP (μM per cell) Mean value (human fibroblasts [1]) [μM per cell]	ATP Increase (%) (human fibroblasts [1])	Effect of treatment against FK866 on mitochondrial mass (in words) (human fibroblasts [2])	Mitochondrial mass (fluorescence units) Mean (human fibroblasts [2]; [3]) [fluorescence units]	Mitochondrial mass Increase (%) (human fibroblasts [2]; [4])	Relative expression of Col1A1 Mean value (Col1A1)	Relative expression of Col1A1 Increase (%) (Col1A1)	Mitochondrial mass Decrease (%) (human fibroblasts [2]; FK866 2.5 nM alone vs basal, 24 h)	Mitochondrial mass (fluorescence units) Mean (human fibroblasts [2]; FK866 2.5 nM alone, 24 h treatment) [fluorescence units]	Effect of FK866 on mitochondrial mass of fibroblasts (in words) (human fibroblasts [2]; FK866 alone)
C[N+](C)(C)CC(=O)[O-] [Betaine, trimethylglycine]	0.080	20	protects against the effects of FK866	1574	19	1.28	28	–	–	–
O=C(/C=C/c1cccnc1)NCCCCC1CCN(C(=O)c2ccccc2)CC1 [FK866, reference compound]	–	–	–	–	–	–	–	10	1326	decreases the mitochondrial mass
Oc1ccc(C=Cc2cc(O)cc(O)c2)cc1 [Resveratrol, 3,5,4′-trihydroxystilbene]	0.086	28	protects against the effects of FK866	2285	72	1.22	22	–	–	–
